From US11293927B2, “Screening methods for PARP modulators” (Ribon Therapeutics, Inc., priority 2018, dated 2022) come the findings set out here.

Common to all, as to assay type: cell-based
In one assay the target is T1, PARP10 (Homo sapiens, UniProt Q53GL7).
T1 sequence (Q53GL7 808-1025): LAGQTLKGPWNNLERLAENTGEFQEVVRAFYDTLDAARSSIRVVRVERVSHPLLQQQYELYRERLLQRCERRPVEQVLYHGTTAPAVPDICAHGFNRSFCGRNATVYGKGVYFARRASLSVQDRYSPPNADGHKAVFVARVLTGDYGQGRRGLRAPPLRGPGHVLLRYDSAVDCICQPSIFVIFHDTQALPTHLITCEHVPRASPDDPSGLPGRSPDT
In words: NanoBRET probe displacement assay (Probe A) in live 293T cells, PARP10. Conditions: NanoBRET displacement of Probe A, NanoLuc-tagged PARP10 in live 293T cells. Here is the method: (§1) MonoPARP genes from Table 5 were cloned into the pcDNA3.1-mammalian expression vector as a NanoLuc fusion with NanoLuc on the N- or C-terminus as indicated. The sequence of the NanoLuc tag is as follows: [table] Displacement of a fluorescently-labeled compound Probe A binding to NanoLuc-tagged monoPARP enzymes was measured in live cells using a bioluminescence resonance energy transfer (NanoBRET) assay. TIPARP, PARP10, PARP12 or PARP14 fused to a NanoLuc tag were overexpressed in 293T cells (ATCC) using the plasmids described herein. Plasmid DNA and empty vector DNA were added to phenol red free OptiMEM (Thermo Fisher) as shown in Table 6 in a total volume of 2.456 mL. 157 μL of Fugene HD (Promega) was added to the DNA mixture and allowed to incubate 5 min at 25° C. [table] Next, 2.375 mL of the plasmid-Fugene mixture were added to 20 million 293T cells in DMEM (Thermo Fisher) supplemented with 10% FBS (VWR). The transfection was incubated for 24 h at 37° C. in an incubator containing air supplemented with 5% CO2. The cells were resuspended in phenol red free OptiMEM media. 40 μL of cells were then added to white polystyrene 384-well non-binding surface microplate (Corning). […] Filtered luminescence was measured on an Envision (Perkin Elmer) equipped with a dual 585 nm mirror, 460±40 nm bandpass filter (donor) and 610±50 nm longpass filter (acceptor). […]
For orientation: In BRET a luciferase serves as donor, and the signal depends on an acceptor being close.

The target of the next assay is T2, full-length TIPARP (Homo sapiens, UniProt Q7Z3E1).
T2 construct: 1-657 of; expressed in transfected cells; host or cells: 293T cells (ATCC), pcDNA3.1
T2 sequence (Q7Z3E1 1-657): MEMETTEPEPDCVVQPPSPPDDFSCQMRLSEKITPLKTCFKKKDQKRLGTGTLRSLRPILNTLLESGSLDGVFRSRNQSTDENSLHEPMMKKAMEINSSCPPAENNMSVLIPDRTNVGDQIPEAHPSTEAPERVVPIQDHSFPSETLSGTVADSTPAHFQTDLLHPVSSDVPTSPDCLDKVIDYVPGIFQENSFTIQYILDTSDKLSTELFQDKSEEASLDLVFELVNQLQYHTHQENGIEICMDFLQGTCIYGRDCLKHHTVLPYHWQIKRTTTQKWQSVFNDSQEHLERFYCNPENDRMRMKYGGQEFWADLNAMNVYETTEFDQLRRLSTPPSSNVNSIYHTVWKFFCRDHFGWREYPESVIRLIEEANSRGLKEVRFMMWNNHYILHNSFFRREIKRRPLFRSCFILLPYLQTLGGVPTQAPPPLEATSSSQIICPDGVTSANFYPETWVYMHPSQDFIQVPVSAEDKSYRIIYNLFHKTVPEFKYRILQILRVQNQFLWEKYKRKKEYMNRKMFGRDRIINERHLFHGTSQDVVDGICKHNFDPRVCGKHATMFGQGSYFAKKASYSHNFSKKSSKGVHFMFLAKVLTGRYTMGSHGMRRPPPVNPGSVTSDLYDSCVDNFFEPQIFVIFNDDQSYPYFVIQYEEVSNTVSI
In words: NanoBRET probe displacement assay (Probe A) in live 293T cells, full-length TIPARP. Conditions: NanoBRET displacement of Probe A, NanoLuc-tagged full-length TIPARP in live 293T cells. On the procedure: as §1

The next assay concerns the target T3, catalytic domain TIPARP (Homo sapiens, UniProt Q7Z3E1).
T3 construct: 456-657 of; expressed in transfected cells; host or cells: 293T cells (ATCC), pcDNA3.1
T3 sequence (Q7Z3E1 456-657): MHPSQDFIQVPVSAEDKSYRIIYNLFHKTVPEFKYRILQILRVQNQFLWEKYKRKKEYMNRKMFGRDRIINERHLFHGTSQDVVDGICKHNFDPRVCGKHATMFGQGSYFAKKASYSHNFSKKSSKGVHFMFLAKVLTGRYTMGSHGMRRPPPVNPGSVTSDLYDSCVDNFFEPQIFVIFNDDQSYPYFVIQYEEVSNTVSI
In words: NanoBRET probe displacement assay (Probe A) in live 293T cells, catalytic domain TIPARP. The note with it: NanoBRET displacement of Probe A, NanoLuc-tagged catalytic domain TIPARP in live 293T cells. On the procedure: as §1

The target of another assay is T4, PARP12 (Homo sapiens, UniProt Q9H0J9).
T4 sequence (Q9H0J9 489-684): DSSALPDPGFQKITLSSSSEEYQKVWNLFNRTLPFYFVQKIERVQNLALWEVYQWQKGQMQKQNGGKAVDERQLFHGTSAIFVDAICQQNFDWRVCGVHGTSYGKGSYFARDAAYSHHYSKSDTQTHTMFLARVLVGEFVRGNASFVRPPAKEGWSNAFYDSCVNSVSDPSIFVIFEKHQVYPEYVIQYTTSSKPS
In words: NanoBRET probe displacement assay (Probe A) in live 293T cells, PARP12. The note with it: NanoBRET displacement of Probe A, NanoLuc-tagged PARP12 in live 293T cells. More on the design: 489-684 of; expressed in transfected cells; host or cells: 293T cells (ATCC), pcDNA3.1. Here is the method: as §1

As to `CC(=O)N1CCC(Oc2ccc3c(n2)CN(c2cn[nH]c(=O)c2C(F)(F)F)C3)CC1` [Compound C, 5-[2-[(1-Acetylpiperidin-4-yl)oxy]-5H,6H,7H-pyrrolo[3,4-b]pyridin-6-yl]-4-(trifluoromethyl)-2,3-dihydropyridazin-3-one], the IC50 – broadly, the concentration that inhibits the measured activity by half – on PARP10 was found to be 4 nM.
Turning to `N#Cc1ccc(N2CCN(C(=O)c3cccc(OC[C@@H]4c5ccccc5CN4c4cn[nH]c(=O)c4C(F)(F)F)c3)CC2)nc1` [Compound B, 6-[4-[(3-[[(1S)-2-[6-Oxo-5-(trifluoromethyl)-1,6-dihydropyridazin-4-yl]-2,3-dihydro-1H-isoindol-1-yl]methoxy]phenyl)carbonyl]piperazin-1-yl]pyridine-3-carbonitrile], the half-inhibitory concentration (IC50) was 4 nM at full-length TIPARP, 7 nM on catalytic domain TIPARP and 170 nM at PARP12.
